The values that follow come from patent publication US20230271949A1, “GLP-1R MODULATING COMPOUNDS” (ASCLETIS BIOSCIENCE CO., LTD., priority 2022, published 2023).

Molecules are shown by their SMILES.

For orientation: EC50 means the concentration at which the effect is half-maximal.

In the test the target is GLP-1R (Homo sapiens, UniProt P43220). As to the kind of experiment: GLP-1R agonist cAMP stimulation assay (HTRF cAMP). It counts as cell-based. Particulars: HEK293 cell line expressing GLP-1 target; HTRF cAMP agonist mode, 30 min at RT. How it is done:
cAMP Detection Kit, Cisbio (Cat #62AM4PEJ)
The cell line was constructed by WuXi.
2. Methods • a) The compound source plate preparation: • The reference 7-37 was diluted from 500 nM, 4-fold, 10 points in DMSO using Bravo. The compounds were diluted from […], 3-fold, 10 points in DMSO using Bravo. • b) Transfer of compounds: • 1) Use Echo transfer 100 nL cpd to the OptiPlate-384 plate. • 2) Spin the plates at 1000 rpm for 5 sec. • c) Cell suspension preparation: • 1) Thaw 1 vial of GLP-1 cells rapidly in 37° C. water bath. • 2) Transfer cell suspension into 10 ml of HBSS in a 15 ml conical tube. • 3) Centrifuge cells at 1000 rpm for 5 min at room temperature to pellet cells • 4) Gently aspirate supernatant being careful not to aspirate cells. • 5) Flick pellet to loose cells and re-suspend the cell pellet in 10 ml HBSS. Use a sterile pipette to pipette up and down to dislodge clumps. • 6) Count cells for concentration and to determine cell viability on Vi-cell. • 7) Re-suspend the GLP-1 cells in assay buffer at a concentration of 1.0×E5/mL cells. • 8) Transfer 10 μL GLP-1 cells to OptiPlate-384 plate. • d) HTRF cAMP Assay for agonist: • 1) Incubate the plate at RT for 30 min before adding the detection reagent. • 2) Add 10 μL each of detection reagent using Electric Multiple Channel Pipette. • 3) Cover the 384 plate with TopSeal-A film and incubate for 60 minutes at room temperature. • Remove the TopSeal-A, read on EnVision.
Create a new log (Inhibitor) vs response—Variable slope mode in Prism5.0 software, substitute the standard curve concentration (x) and its corresponding 665/615 data (y) into the model, convert the standard curve concentration (abscissa) by x=log(x), and make the standard curve through the converted xy.
Transform the data of 665/615 in the whole plate into a column of data, substitute it into y in the table of standard curve concentration (x) and 665/615 data (y), copy the x (interpolatedx) corresponding to automatic conversion by the software into a table, convert it into cAMP level by the formula x=10^(x), and reset the data into 384 distribution.
% Activity=(cAMP level−LC)/(HC−LC)*100% • Z factor: 1-3*(STD_HC+[…])/(HC-LC) • Assay Window: HC/LC • LC: The average cAMP level of adding DMSO wells • HC: The average cAMP level of adding the top concentration of reference compounds wells.
Create a new […] in Prism5.0 software, substitute the sample concentration (x) and its corresponding % Activity data (y) into the model, convert the standard curve concentration (abscissa) to x=log(x), and make the sample curve through the converted xy.
For orientation: Time-resolved FRET reads energy transfer from a long-lived donor to a nearby acceptor.

GLP-1R, sequence (P43220 24-463): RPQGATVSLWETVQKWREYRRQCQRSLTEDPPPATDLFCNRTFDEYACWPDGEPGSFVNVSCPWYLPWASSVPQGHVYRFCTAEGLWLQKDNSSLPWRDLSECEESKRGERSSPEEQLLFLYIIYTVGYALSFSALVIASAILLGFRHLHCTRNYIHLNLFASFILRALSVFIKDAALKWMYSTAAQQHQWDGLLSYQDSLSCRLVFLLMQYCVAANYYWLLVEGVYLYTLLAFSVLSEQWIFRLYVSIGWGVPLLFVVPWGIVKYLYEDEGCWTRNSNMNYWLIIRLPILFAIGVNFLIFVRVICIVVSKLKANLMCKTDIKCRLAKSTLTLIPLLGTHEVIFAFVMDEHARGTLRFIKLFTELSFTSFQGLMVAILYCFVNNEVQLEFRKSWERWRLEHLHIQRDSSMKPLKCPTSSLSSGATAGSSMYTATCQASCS

For `C[C@]12C[C@@H](C(=O)O)N(C(=O)CNC(=O)c3ccc4c(c3)nc(CN3CCC(c5cccc(OCc6ccc(Cl)cc6F)n5)CC3)n4C[C@@H]3CCO3)[C@@]1(C)C2` [Compound 55], the concentration for a half-maximal effect (EC50) came out at 1.83 nM.
As for `O=C(Nc1ccc2c(c1)nc(CN1CC=C(c3cccc(OCc4ccc(Cl)cc4F)n3)CC1)n2CC1CCO1)c1ccn2ncc(Cl)c2c1` (stereo not shown) [Compound 206], the figure is 5.91 nM; as for `COCCn1c(CN2CCC(c3cccc(OCc4ccc(Cl)cc4F)n3)CC2)nc2cc(C(=O)NCc3ccc(O)nc3)ccc21` [Compound 34], 90.1 nM.
As for `CCn1cncc1Cn1c(CN2CC=C(c3cccc4c3OC(C)(c3ccc(Cl)cn3)O4)CC2)nc2cc(NC(=O)c3cc(F)c4[nH]nc(C)c4c3)ccc21` (stereo not shown) [Compound 410], the figure is 0.31 nM; as for `Cc1n[nH]c2ccc(NC(=O)c3ccc4c(c3)nc(CN3CCC(c5cccc(OCc6c(F)cnc7ccccc67)n5)CC3)n4C[C@@H]3CCO3)cc12` [Compound 380], 6.91 nM.
For `Cc1cc(NC(=O)c2ccc3c(c2)nc(CN2CCC(c4cccc(OCc5ccc(Cl)cc5F)n4)CC2)n3C[C@@H]2CCO2)cc2c(C(F)F)n[nH]c12` [Compound 116] the value was 0.92 nM.
For `COCCn1c(CN2CCC(c3cccc(OCc4ccc(Cl)cc4F)n3)CC2)nc2cc(C(=O)NCc3ccc(O)c(O)c3)ccc21` [Compound 33], the midpoint of the response, the EC50, lay at 61 nM.
Regarding `O=C(Nc1ccc2ncsc2c1)c1ccc2c(c1)nc(CN1CC=C(c3cccc(OCc4ccc(Cl)cc4F)n3)CC1)n2C[C@@H]1CCO1` [Compound 150], a half-maximal response (EC50) required 5.78 nM.
As for `Cc1n[nH]c2c(Cl)cc(NC(=O)c3ccc4c(c3)nc(CN3CC=C(c5cccc6c5OC(C)(c5ccc(Cl)cc5F)O6)C[C@@H]3C)n4CC3CCO3)cc12` (stereo partly shown) [Compound 302], the figure is 1.07 nM.
For `Cc1cc(C(=O)Nc2ccc3c(c2)nc(CN2CC=C(c4cccc(OCc5ccc(Cl)cc5F)n4)CC2)n3C[C@@H]2CCO2)cc2nn[nH]c12` [Compound 242] the value was 0.17 nM; for `Cc1n[nH]c2c(C(F)(F)F)cc(NC(=O)c3ccc4nc(CN5CC=C(c6cccc(OCc7ccc(Cl)cc7F)n6)CC5)n(CC5CCO5)c4c3)cc12` (stereo not shown) [Compound 272], 3.21 nM; for `Cc1n[nH]c2c(C)cc(NC(=O)c3ccc4nc(CN5CC=C(c6cccc(OCc7ccc(Cl)cc7F)n6)CC5)n(CC5CCO5)c4c3)cc12` (stereo not shown) [Compound 264], 4.22 nM.
For `COCCn1c(CN2CCC(c3cccc(OCc4ccc(Cl)cc4F)n3)CC2)nc2cc(C(=O)NCCCn3ccnc3)ccc21` [Compound 16], the EC50 turned out to be 146 nM.
The molecule `CCc1cc(NC(=O)c2ccc3c(c2)nc(CN2CC=C(c4cccc(OCc5ccc(Cl)cc5F)n4)CC2)n3C[C@@H]2CCO2)cc2c(C)n[nH]c12` [Compound 170] had an EC50 of 3.55 nM.
Consider `O=C(Nc1ccc2c(c1)C1(CC1)C(=O)N2)c1ccc2nc(CN3CC=C(c4cccc(OCc5ccc(Cl)cc5F)n4)CC3)n(C[C@@H]3CCO3)c2c1` [Compound 266], for which the half-maximal effective concentration (EC50) came out at 3.19 nM.
For the molecule `O=C(Nc1ccc2[nH]nc(C(F)F)c2c1)c1ccc2c(c1)nc(CN1CCC(c3cccc(OCc4ccc(Cl)cc4F)n3)CC1)n2C[C@@H]1CCO1` [Compound 115], a half-maximal effect (EC50) was put at 0.87 nM.
For `Cc1n[nH]c2c(C)cc(NC(=O)c3ccc4c(c3)nc(CN3CCC(c5cccc(OCc6cc(F)c(C#N)s6)n5)CC3)n4C[C@@H]3CCO3)cc12` [Compound 376] the value was 0.98 nM; for `Cc1cc2c(C#N)ccc(COc3cccc(C4=CCN(Cc5nc6cc(C(=O)Nc7ccc8[nH]nc(C(F)(F)F)c8c7)ccc6n5C[C@@H]5CCO5)CC4)n3)c2o1` [Compound 356], 2.21 nM; for `COCCn1c(CN2CCC(c3cccc(OCc4ccc(Cl)cc4F)n3)CC2)nc2cc(C(=O)NCC(CC(=O)O)c3ccccc3)ccc21` (stereo not shown) [Compound 41], 376 nM.
The molecule `C=C(C)c1n[nH]c2ccc(C(=O)Nc3ccc4c(c3)nc(C3CC35CCN(c3cccc(OCc6ccc(Cl)cc6F)n3)CC5)n4CC3CCO3)cc12` (stereo not shown) [Compound 243] showed an EC50 of 0.48 nM.
For `Cc1cc2c(C#N)ccc(COc3cccc(C4CCN(Cc5nc6cc(NC(=O)c7ccc8[nH]nc(C)c8c7)ccc6n5C[C@@H]5CCO5)CC4)n3)c2o1` [Compound 370], the EC50 was found to be 5.12 nM.
On to `Cc1n[nH]c2c(F)cc(C(=O)Nc3ccc4c(c3)nc(CN3CC=C(c5cccc(OCc6ccc(C#N)cc6F)n5)CC3)n4C[C@@H]3CCO3)cc12` [Compound 225], for which the EC50 was found to be 0.18 nM.
As for `O=C(NC1=Nc2nccn2C1)c1ccc2c(c1)nc(CN1CC=C(c3cccc(OCc4ccc(Cl)cc4F)n3)CC1)n2C[C@@H]1CCO1` [Compound 400], the figure is 104 nM; as for `CC1(c2ccc(C#N)cc2F)Oc2cccc(C3CCN(Cc4nc5cc(NC(=O)c6ccc7[nH]nc(C8CC8)c7c6)ccc5n4CC4CCO4)CC3)c2O1` (stereo not shown) [Compound 348], 0.91 nM.
With `N#Cc1ccc(COc2cccc(C3=CCN(Cc4nc5cc(NC(=O)c6ccc7[nH]nc(C(F)(F)F)c7c6)ccc5n4C[C@@H]4CCO4)CC3)n2)c(F)c1` [Compound 232], the midpoint of the response, the EC50, lay at 1.26 nM.
For `Cc1n[nH]c2c(F)cc(NC(=O)c3ccc4c(c3)nc(CN3CC=C(c5cccc(OCc6ccc(C#N)c7c6ncn7C)n5)CC3)n4C[C@@H]3CCO3)cc12` [Compound 367] the value was 3.92 nM.
For `O=C(Nc1cc(F)c2c(c1)C1(CC1)C(=O)N2)c1ccc2nc(CN3CC=C(c4cccc(OCc5ccc(Cl)cc5F)n4)CC3)n(C[C@@H]3CCO3)c2c1` [Compound 271] the value was 0.97 nM; for `COCCn1c(Cc2ccc(-c3cccc(OCc4ccc(C#N)cc4F)n3)cc2)nc2cc(C(=O)NCC(O)c3ccc(O)cc3)ccc21` (stereo not shown) [Compound 11], 567 nM.
For `Cc1cc(NC(=O)c2ccc3c(c2)nc(CN2CC=C(c4cccc(OCc5ccc(Cl)cc5F)n4)CC2)n3C[C@@H]2CCO2)cc2nn[nH]c12` [Compound 167] the value was 0.68 nM; for `CC1(c2ccc(Cl)cc2F)Oc2cccc(C3=CCN(Cc4nc5cc(C(=O)Nc6ccc7[nH]nc(C(F)(F)F)c7c6)ccc5n4CC4CCO4)CC3)c2O1` (stereo not shown) [Compound 297], 3.65 nM; for `N#Cc1ccc(COc2cccc(C3CCN(Cc4nc5cc(C(=O)Nc6ccc7c(c6)C6(CC6)C(=O)N7)ccc5n4C[C@@H]4CCO4)CC3)n2)c(F)c1` [Compound 128], 0.3 nM.
As to `O=C(NCC(=O)N1C[C@@H](O)C[C@H]1C(=O)O)c1ccc2c(c1)nc(CN1CCC(c3cccc(OCc4ccc(Cl)cc4F)n3)CC1)n2C[C@@H]1CCO1` [Compound 45], the response was half-maximal at 1.39 nM (EC50).
As for `CC1(C)C[C@@H](C(=O)O)N(C(=O)CNC(=O)c2ccc3c(c2)nc(CN2CCC(c4cccc(OCc5ccc(Cl)cc5F)n4)CC2)n3C[C@@H]2CCO2)C1` [Compound 58], the figure is 4.35 nM; as for `Cc1n[nH]c2ccc(C(=O)Nc3ccc4c(c3)nc(CN3CC=C(c5cccc(OCc6ccc(Cl)cc6F)n5)CC3)n4C[C@@H]3CCO3)cc12` [Compound 4, (S)—N-(2-((6-((4-chloro-2-fluorobenzyl)oxy)-3′,6′-dihydro-[2,4′-bipyridin]-1′(2′H)-yl)methyl)-1-(oxetan-2-ylmethyl)-1H-benzo[d]imidazol-5-yl)-3-methyl-1H-indazole-5-carboxamide], 0.14 nM; as for `O=C(Nc1ncc2[nH]cnc2n1)c1ccc2c(c1)nc(CN1CC=C(c3cccc(OCc4ccc(Cl)cc4F)n3)CC1)n2C[C@@H]1CCO1` [Compound 144], 23.4 nM.
As for `CCn1cncc1Cn1c(Cc2c(F)cc(-c3cccc4c3O[C@](C)(c3ccc(Cl)cn3)O4)cc2F)nc2cc(NC(=O)c3cc(F)c4[nH]nc(C)c4c3)ccc21` [Compound 412], the figure is 3.1 nM; as for `Cc1n[nH]c2ccc(C(=O)Nc3ccc4c(c3)nc(C(F)(F)N3CC=C(c5cccc(OCc6ccc(Cl)cc6F)n5)CC3)n4C[C@@H]3CCO3)cc12` [Compound 257], 15.1 nM.
As to `COC(=O)[C@@H]1CC(F)(F)CN1C(=O)[C@H](C)NC(=O)c1ccc2c(c1)nc(CN1CC=C(c3cccc(OCc4ccc(Cl)cc4F)n3)CC1)n2C[C@@H]1CCO1` [Compound 71], the midpoint of the response, the EC50, lay at 132 nM.
Consider `O=C(Nc1ccc2nc(CN3CC=C(c4cccc(OCc5ccc(Cl)cc5F)n4)CC3)n(C[C@@H]3CCO3)c2c1)c1cc(F)c2c(c1)C1(CC1)C(=O)N2` [Compound 286], for which the concentration giving a half-maximal response (EC50) was found to be 0.21 nM.
For `O=C(Nc1ccc2ncsc2c1)c1ccc2c(c1)nc(CN1CCC(c3cccc(OCc4ccc(Cl)cc4F)n3)CC1)n2C[C@@H]1CCO1` [Compound 98] the value was 16.9 nM.
